Counter-ions that a name gives are not always drawn.

The target in this assay is T1, human recombinant CD38 enzyme (Homo sapiens, UniProt P28907).
T1 construct: purchased R&D Systems H7006
T1 sequence (P28907 1-300): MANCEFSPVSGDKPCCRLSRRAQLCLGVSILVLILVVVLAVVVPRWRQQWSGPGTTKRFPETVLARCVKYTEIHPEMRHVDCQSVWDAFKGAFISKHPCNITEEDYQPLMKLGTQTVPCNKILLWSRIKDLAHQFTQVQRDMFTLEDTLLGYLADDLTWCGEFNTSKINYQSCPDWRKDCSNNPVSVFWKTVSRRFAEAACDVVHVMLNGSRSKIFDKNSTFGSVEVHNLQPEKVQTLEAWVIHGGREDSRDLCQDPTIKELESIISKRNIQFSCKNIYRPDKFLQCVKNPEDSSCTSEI
Briefly: Human recombinant enzyme assay (fluorimetric CD38 enzyme assay, ε-NAD substrate). The assay is classed as biochemical. As to conditions: recombinant CD38 100 ng/ml, ε-NAD 100 µM, pH = 6.0, 37°C, reaction time 30 min; read-out: IC50 (nM) ENAD. The method, then: Enzyme assay on human recombinant CD38 enzyme were performed in order to determine the in vitro potency of the newly synthesized compounds. IC50 values were determined for the test compounds and used to explore the structure-activity relationships (SAR).
N6-etheno-NAD (ε-NAD), a NAD analogue previously shown to be a convenient substrate of CD38 enzyme activity (Graeff et al. J. Biol. Chem. 269, pp 30260-30367, […]) was used to measure the activity of human recombinant CD38 and cell surface enzyme activity.
A fluorimetric CD38 enzyme assay was performed as described by Graeff et al. The reaction was started with 10 µl of N6-etheno-NAD (ε-NAD) substrate, final concentration 100 µM, in a final volume of 0.1 ml buffered with 50 mM HEPES, 0.05% BRIJ, pH = 6.0 containing 100 ng/ml recombinant CD38 (R&D Systems, H7006). Cleavage of ε-NAD, which causes a 10-fold fluorescence enhancement, was continuously followed at 37°C in a BMG Polarstar spectrofluorometer at an emission wavelength of 410 nm and an excitation of 300 nm, reaction time was 30 min. NADase activity was expressed as Δ relative fluorescence/min. The rate of enzyme reactions were compared in the presence and absence of inhibitor molecule, the IC50 values were calculated with Biostat Speed program.
A word on the IC50: it is the point on the concentration scale where inhibition reaches its midpoint. Consider `O=C1N/C(=C\c2ccncc2)C(=O)N1c1ccccc1` [Compound 1, 3-Phenyl-5-[1-pyridin-4-yl-meth-(Z)-ylidene]-imidazolidine-2,4-dione.HCl salt], for which the IC50 amounted to 30 nM.

Consider `Cc1cccc(N2C(=O)N/C(=C\c3ccncc3)C2=O)c1` [Compound 3, 5-[1-Pyridin-4-yl-meth-(Z)-ylidene]-3-m-tolyl-imidazolidine-2,4-dione], for which the IC50 is 50 nM.

Take `CCc1ccc(N2C(=O)N/C(=C\c3ccncc3)C2=O)cc1` [Compound 4, 3-(4-Ethyl-phenyl)-5-[1-pyridin-4-yl-meth-(Z)-ylidene]-imidazolidine-2,4-dione]: the IC50 came to 60 nM.

As to `O=C1N/C(=C\c2ccncc2)C(=O)N1c1cccc(Cl)c1` [Compound 5, 3-(3-Chloro-phenyl)-5-[1-pyridin-4-yl-meth-(Z)-ylidene]-imidazolidine-2,4-dione HCl-salt], the IC50 came to 50 nM.

For the compound `O=C1N/C(=C\c2ccncc2)C(=O)N1c1ccc(Cl)c(Cl)c1` [Compound 6, 3-(3,4-Dichloro-phenyl)-5-[1-pyridin-4-yl-meth-(Z)-ylidene]-imidazolidine-2,4-dione], the IC50 worked out at 50 nM.

`O=C1N/C(=C\c2ccncc2)C(=O)N1Cc1ccccc1` [Compound 7, 3-Benzyl-5-[1-pyridin-4-yl-meth-(Z)-ylidene]-imidazolidine-2,4-dione]: the IC50 came out at 50 nM.

On to `CSc1ccc(N2C(=O)N/C(=C\c3ccncc3)C2=O)cc1` [Compound 8, 3-(4-Methylsulfanyl-phenyl)-5-[1-pyridin-4-yl-meth-(Z)-ylidene]-imidazolidine-2,4-dione], for which the IC50 was found to be 70 nM.

In the case of `O=C1N/C(=C\c2ccncc2)C(=O)N1C1CCCCC1` [Compound 9, 3-Cyclohexyl-5-[1-pyridin-4-yl-meth-(Z)-ylidene]-imidazolidine-2,4-dione], the IC50 was 292 nM.

As to `O=C1N/C(=C\c2ccncc2)C(=O)N1c1ccc(F)c(F)c1` [Compound 10, 3-(3,4-Difluoro-phenyl)-5-[1-pyridin-4-yl-meth-(Z)-ylidene]-imidazolidine-2,4-dione], the IC50 worked out at 30 nM.

Regarding `N#Cc1ccc(N2C(=O)N/C(=C\c3ccncc3)C2=O)cc1` [Compound 11, 4-{2,5-Dioxo-4-[1-pyridin-4-yl-meth-(Z)-ylidene]-imidazolidin-1-yl} -benzonitrile], the IC50 worked out at 30 nM.

On to `O=C1N/C(=C\c2ccncc2)C(=O)N1c1ccc(F)cc1` [Compound 12, 3-(4-Fluoro-phenyl)-5-[1-pyridin-4-yl-meth-(2)-ylidene]-imidazolidine-2,4-dione], for which the IC50 amounted to 16 nM.

For the compound `CC(=O)c1cccc(N2C(=O)N/C(=C\c3ccncc3)C2=O)c1` [Compound 13, 3-(3-Acetyl-phenyl)-5-[1-pyridin-4-yl-meth-(Z)-ylidene]-imidazolidine-2,4-dione], the IC50 amounted to 30 nM.

As for `CN(C)c1ccc(N2C(=O)N/C(=C\c3ccncc3)C2=O)cc1` [Compound 14, 3-(4-Dimethylamino-phenyl)-5-[1-pyridin-4-yl-meth-(Z)-ylidene]-imidazolidine-2,4-dione], the IC50 turned out to be 90 nM.

On to `O=C(O)c1ccc(N2C(=O)N/C(=C\c3ccncc3)C2=O)cc1` [Compound 15, 4-{2,5-Dioxo-4-[1-pyridin-4-yl-meth-(Z)-ylidene]-imidazolidin-l-yl}-benzoic acid], for which the IC50 came out at 110 nM.

With `O=C1N/C(=C\c2ccncc2)C(=O)N1c1cccc(C(F)(F)F)c1` [Compound 16, 5-[1-Pyridin-4-yl-meth-(Z)-ylidene]-3-(3-triftuoromethyl-phenyl)-imidazolidine-2,4-dione], the IC50 amounted to 77 nM.

For the compound `COc1ccc(N2C(=O)N/C(=C\c3ccncc3)C2=O)cc1` [Compound 17, 3-(4-Methoxy-phenyl)-5-[1-pyridin-4-yl-meth-(Z)-ylidene]-imidazolidine-2,4-dione], the IC50 worked out at 55 nM.

For `O=C1N/C(=C\c2ccncc2)C(=O)N1CCc1ccccc1` [Compound 18, 3-Phenethyl-5-[1-pyridin-4-yl-meth-(Z)-ylidene]-imidazolidine-2,4-dione], the IC50 was found to be 60 nM.

For `Cc1ccc(N2C(=O)N/C(=C\c3ccncc3)C2=O)cc1` [Compound 19, 5-[1-Pyndin-4-yl-meth-(Z)-ylidene]-3-p-totyl-imidazolidine-2,4-dione], the IC50 stood at 30 nM.

Take `O=C1N/C(=C\c2ccncc2)C(=O)N1c1ccc(Br)cc1` [Compound 20, 3-(4-Bromo-phenyl)-5-[1-pyridin-4-yl-meth-(Z)-ylidene]-imidazolidine-2,4-dione]: the IC50 came out at 20 nM.

For the compound `CC(C)N1C(=O)N/C(=C\c2ccncc2)C1=O` [Compound 21, 3-Isopropyl-5-[1-pyridin-4-yl-meth-(Z)-ylidene]-imidazolidine-2,4-dione], the IC50 is 40 nM.

Consider `CCCCCCN1C(=O)N/C(=C\c2ccncc2)C1=O` [Compound 22, 3-Hexyl-5-[1-pyridin-4-yl-meth-(Z)-ylidene]-imidazotidine-2,4-dione], for which the half-maximal inhibitory concentration (IC50) is 55 nM.

For the compound `CC(=O)c1ccc(N2C(=O)N/C(=C\c3ccncc3)C2=O)cc1` [Compound 23, 3-(4-Acetyl-phenyl)-5-[1-pyridin-4-yl-meth-(Z)-ylidene]-imidazolidine-2,4-dione], the IC50 was 26 nM.

For the compound `C[S+]([O-])c1ccc(N2C(=O)N/C(=C\c3ccncc3)C2=O)cc1` (centres unmarked) [Compound 25, 3-(4-Methanesulfinyl-phenyl)-5-[1-pyridin-4-yl-meth-(Z)-ylidene]-imidazolidine-2,4-dione], the half-maximal inhibitory concentration (IC50) was 60 nM.

For `CS(=O)(=O)c1ccc(N2C(=O)N/C(=C\c3ccncc3)C2=O)cc1` [Compound 26, 3-(4-Methanesulfonyl-phenyl)-5-[1-pyridin-4-yl-meth-(Z)-ylidene]-imidazolidine-2,4-dione], the IC50 is 22 nM.

As to `O=C(O)c1cccc(N2C(=O)N/C(=C\c3ccncc3)C2=O)c1` [Compound 27, 3-{2,5-Dioxo-4-[1-pyridin-4-yl-meth-(Z)-ylidene]-imidazolidin-1-yl}-benzoic acid], the IC50 was 56 nM.

As to `O=C(c1ccc(N2C(=O)N/C(=C\c3ccncc3)C2=O)cc1)N1CCOCC1` [Compound 29, 3-[4-(Morpholine-4-carbonyl)-phenyl]-5-[1-pyridin-4-yl-meth-(Z)-ylidene]-imidazolidine-2,4-dione], the IC50 stood at 51 nM.

In the case of `O=C1N/C(=C\c2ccncc2)C(=O)N1c1ccc(OC(F)(F)F)cc1` [Compound 30, 5-[1-Pyridin-4-yl-meth-(Z)-ylidene]-3-(4-trifluoromethoxy-phenyl)-imidazolidine-2,4-dione], the IC50 turned out to be 28 nM.

Take `O=C1N/C(=C\c2ccncc2)C(=O)N1c1ccc(C(F)(F)F)cc1` [Compound 31, 5-[1-Pyridin-4-yl-meth-(Z)-ylidene]-3-(4-trifluoromethyl-phenyl)-imidazolidine-2,4-dione]: the IC50 turned out to be 43 nM.

Turning to `O=C(O)Cc1ccc(N2C(=O)N/C(=C\c3ccncc3)C2=O)cc1` [Compound 32, (4-{2,5-Dioxo-4-[1-pyndin-4-yl-meth-(Z)-ylidene]-imidazolidin-1-yl}-phenyl)-acetic acid], the IC50 was found to be 38 nM.

Turning to `O=C(NCCN1CCOCC1)c1cccc(N2C(=O)N/C(=C\c3ccncc3)C2=O)c1` [Compound 34, 3-{2,5-Dioxo-4-[1-pyridin-4-yl-meth-(Z)-ylidene]-imidazolidin-1-yl}-N-(2-morpholin-4-yl-ethyl)-benzamide], the half-maximal inhibitory concentration (IC50) turned out to be 65 nM.

Take `CC(C)(C)c1ccc(N2C(=O)N/C(=C\c3ccncc3)C2=O)cc1` [Compound 35, 3-(4-tert-Butyl-phenyl)-5-[1-pyridin-4-yl-meth-(Z)-ylidene]-imidazolidine-2,4-dione]: the 50% inhibitory concentration (IC50) was 100 nM.

As for `CCOc1ccc(CCN2C(=O)N/C(=C\c3ccncc3)C2=O)cc1OCC` [Compound 36, 3-[2-(3,4-Diethoxy-phenyl)-ethyl]-5-[1-pyridin-4-yl-meth-(Z)-ylidene]-imidazolidine-2,4-dione], the IC50 is 250 nM.

Take `O=C1N/C(=C\c2ccncc2)C(=O)N1CCN1CCCC1` [Compound 37, 5-[1-Pyridin-4-yl-meth-(Z)-ylidene]-3-(2-pyrrolidin-1-yl-ethyl)-imidazolidine-2,4-dione]: the IC50 was found to be 290 nM.

As for `O=C1N/C(=C\c2ccncc2)C(=O)N1C12CC3CC(CC(C3)C1)C2` [Compound 38, 3-Adamantan-1-yl-5-[1-pyridin-4-yl-meth-(Z)-ylidene]-imidazolidine-2,4-dione], the IC50 stood at 400 nM.

Consider `O=C1N/C(=C\c2ccncc2)C(=O)N1c1cccnc1` [Compound 39, 3-Pyridin-3-yl-5-[1-pyridin-4-yl-meth-(Z)-ylidene]-imidazolidine-2,4-dione], for which the IC50 is 61 nM.

The record behind these values is patent EP2801573A1, “Hydantoine derivatives as CD38 inhibitors” (SANOFI, priority 2013, dated 2014).
